Laboratory results taken from PubChem BioAssay (NCI).
“And” between values parts separate entries of the source, which are not always exact repeats. Equal values may be shown once.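 Tested at 5 concentrations; 48 h exposure; 96-well plates; endpoints linearly interpolated, else capped at highest concentration. At the GI50, growth is halved. TGI denotes the concentration required for complete inhibition of growth.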

Legend:
Assay in all cases: inhibition of tumour cell growth, NCI panel, 48 h
[1] = system: 786-0 renal
[2] = system: A498 renal
[3] = system: A549 NSCLC
[4] = system: ACHN renal
[5] = system: BT-549 breast
[6] = system: CAKI-1 renal
[7] = system: CCRF-CEM leukemia
[8] = system: COLO 205 colon
[9] = system: DU-145 prostate
[10] = system: EKVX NSCLC
[11] = system: HCC-2998 colon
[12] = system: HCT-116 colon
[13] = system: HCT-15 colon
[14] = system: HL-60(TB) leukemia
[15] = system: HOP-62 NSCLC
[16] = system: HOP-92 NSCLC
[17] = system: HS 578T breast
[18] = system: HT29 colon
[19] = system: IGROV1 ovarian
[20] = system: K-562 leukemia
[21] = system: KM12 colon
[22] = system: LOX IMVI melanoma
[23] = system: M14 melanoma
[24] = system: MALME-3M melanoma
[25] = system: MCF7 breast
[26] = system: MDA-MB-231 breast
[27] = system: MDA-MB-435
[28] = system: MDA-N
[29] = system: MOLT-4 leukemia
[30] = system: NCI-H226 lung
[31] = system: NCI-H23 lung
[32] = system: NCI-H460 lung
[33] = system: NCI-H522 lung
[34] = system: NCI/ADR-RES ovarian
[35] = system: OVCAR-3 ovarian
[36] = system: OVCAR-4 ovarian
[37] = system: OVCAR-5 ovarian
[38] = system: OVCAR-8 ovarian
[39] = system: PC-3 prostate
[40] = system: RPMI-8226 leukemia
[41] = system: RXF 393 renal
[42] = system: SF-268 CNS
[43] = system: SF-295 CNS
[44] = system: SF-539 CNS
[45] = system: SK-MEL-2 melanoma
[46] = system: SK-MEL-28 melanoma
[47] = system: SK-MEL-5 melanoma
[48] = system: SK-OV-3 ovarian
[49] = system: SN12C renal
[50] = system: SNB-19 CNS
[51] = system: SNB-75 CNS
[52] = system: SW-620 colon
[53] = system: T-47D breast
[54] = system: TK-10 renal
[55] = system: U251 CNS
[56] = system: UACC-257 melanoma
[57] = system: UACC-62 melanoma
[58] = system: UO-31 renal

NC(=S)NS(=O)(=O)c1ccc(F)cc1F
TGI [1]: > 100 µM
TGI [2]: > 100 µM
TGI [3]: > 100 µM
TGI [4]: > 100 µM
TGI [5]: > 100 µM
TGI [6]: > 100 µM
TGI [7]: > 100 µM
TGI [8]: > 100 µM
TGI [9]: > 100 µM
TGI [10]: > 100 µM
TGI [11]: > 100 µM
TGI [12]: > 100 µM
TGI [13]: > 100 µM
TGI [14]: > 100 µM
TGI [15]: > 100 µM
TGI [16]: > 100 µM
TGI [17]: > 100 µM
TGI [18]: > 100 µM
TGI [19]: > 100 µM
TGI [20]: > 100 µM
TGI [21]: > 100 µM
TGI [22]: > 100 µM
TGI [23]: > 100 µM
TGI [24]: > 100 µM
TGI [25]: > 100 µM
TGI [26]: > 100 µM
TGI [27]: > 100 µM
TGI [28]: > 100 µM
TGI [29]: > 100 µM
TGI [30]: > 100 µM
TGI [31]: > 100 µM
TGI [32]: > 100 µM
TGI [33]: > 100 µM
TGI [34]: > 100 µM
TGI [35]: > 100 µM
TGI [36]: > 100 µM
TGI [37]: > 100 µM
TGI [38]: > 100 µM
TGI [39]: > 100 µM
TGI [40]: > 100 µM
TGI [41]: > 100 µM
TGI [42]: > 100 µM
TGI [43]: > 100 µM
TGI [44]: > 100 µM
TGI [45]: > 100 µM
TGI [46]: > 100 µM
TGI [47]: > 100 µM
TGI [48]: > 100 µM
TGI [49]: > 100 µM
TGI [50]: > 100 µM
TGI [51]: > 100 µM
TGI [52]: > 100 µM
TGI [53]: > 100 µM
TGI [54]: > 100 µM
TGI [55]: > 100 µM
TGI [56]: > 100 µM
TGI [57]: > 100 µM

O=C(O)C12C3CCC(O3)C1(C(=O)O)C1CCC2O1 (stereo not given)
TGI [1]: > 100 µM
TGI [2]: > 100 µM
TGI [3]: > 100 µM
TGI [4]: > 100 µM
TGI [5]: > 100 µM
TGI [6]: > 100 µM
TGI [7]: > 100 µM
TGI [8]: > 100 µM
TGI [9]: > 100 µM
TGI [11]: > 100 µM
TGI [12]: > 100 µM
TGI [13]: > 100 µM
TGI [14]: > 100 µM
TGI [15]: > 100 µM
TGI [17]: > 100 µM
TGI [18]: > 100 µM
TGI [19]: > 100 µM
TGI [20]: > 100 µM
TGI [21]: > 100 µM
TGI [22]: > 100 µM
GI50 [23]: 16.1 µM and > 100 µM
TGI [23]: 29.6 µM and > 100 µM
TGI [24]: > 100 µM
TGI [25]: > 100 µM
GI50 [26]: 42.2 µM and 85.8 µM
TGI [26]: > 100 µM
TGI [27]: > 100 µM
GI50 [28]: 31.3 µM and > 100 µM
TGI [28]: > 100 µM
TGI [29]: > 100 µM
TGI [30]: > 100 µM
TGI [31]: > 100 µM
TGI [32]: > 100 µM
TGI [33]: > 100 µM
TGI [34]: > 100 µM
TGI [35]: > 100 µM
TGI [37]: > 100 µM
TGI [38]: > 100 µM
TGI [39]: > 100 µM
TGI [40]: > 100 µM
TGI [41]: > 100 µM
TGI [42]: > 100 µM
TGI [43]: > 100 µM
TGI [44]: > 100 µM
TGI [45]: > 100 µM
TGI [46]: > 100 µM
TGI [47]: > 100 µM
TGI [48]: > 100 µM
TGI [49]: > 100 µM
TGI [50]: > 100 µM
TGI [51]: > 100 µM
TGI [52]: > 100 µM
TGI [53]: > 100 µM
TGI [54]: > 100 µM
TGI [55]: > 100 µM
TGI [56]: > 100 µM
TGI [57]: > 100 µM
TGI [58]: > 100 µM
